pIC50: −log10 of the molar value.
Legend:
CSNK1A1 = CSNK1A1 (Homo sapiens, UniProt P48729); test: Kinase profiling; type: binding; conditions: read-out: % Ctrl @ 1000 nM
FLT3 (D835Y) = FLT3 (D835Y) (Homo sapiens, UniProt P36888, D835Y); test: Kinase profiling; type: binding; conditions: read-out: % Ctrl @ 1000 nM
IKK-epsilon = IKK-epsilon (Homo sapiens, UniProt Q14164); test: Kinase profiling; type: binding; conditions: read-out: % Ctrl @ 1000 nM
Flt3 (h) = biological target: T1, Flt3 (h) (Homo sapiens, UniProt P36888); test: Kinase IC50 (Eurofins KinaseProfiler); type: biochemical
T1 construct: purchased Eurofins (KinaseProfiler service)
Experimental: (§1) CBT-102 were tested against each of the selected kinases using the Eurofins standard KinaseProfder assays and following the relevant standard operating procedures. The required volume of the 50× stock of test compound (CBT-102) was added to the assay well, before a reaction mix containing the enzyme and substrate was added. The reaction was initiated by the addition of ATP at the selected concentration. There was no pre-incubation of the compound with the enzyme/substrate mix prior to ATP addition.
(§2) Data are handled using a custom-built in-house analysis software. Results are expressed as kinase activity remaining, as a percentage of the DMSO control. This is calculated using the following formula: […]
(§3) For IC50 determinations, data are analyzed using XLFit version 5.3 (ID Business Solutions).

CDK6/cyclinD3 (h) = biological target: T2, CDK6/cyclinD3 (h) (Homo sapiens, UniProt Q00534); test: Kinase IC50 (Eurofins KinaseProfiler); type: biochemical
T2 construct: purchased Eurofins (KinaseProfiler service)
Experimental: as §1, §2, §3

DDR2 (h) = biological target: T3, DDR2 (h) (Homo sapiens, UniProt Q16832); test: Kinase IC50 (Eurofins KinaseProfiler); type: biochemical
T3 construct: purchased Eurofins (KinaseProfiler service)
Experimental: as §1, §2, §3

cKit (V654A) (h) = biological target: T4, cKit (V654A) (h) (Homo sapiens, UniProt P10721, V654A); test: Kinase IC50 (Eurofins KinaseProfiler); type: biochemical
T4 construct: purchased Eurofins (KinaseProfiler service)
Experimental: as §1, §2, §3

JAK2 (h) = biological target: T5, JAK2 (h) (Homo sapiens, UniProt O60674); test: Kinase IC50 (Eurofins KinaseProfiler); type: biochemical
T5 construct: purchased Eurofins (KinaseProfiler service)
Experimental: as §1, §2, §3

LOK (h) = biological target: T6, LOK (h) (Homo sapiens, UniProt O94804); test: Kinase IC50 (Eurofins KinaseProfiler); type: biochemical
T6 construct: purchased Eurofins (KinaseProfiler service)
Experimental: as §1, §2, §3

FAK (h) = biological target: T7, FAK (h) (Homo sapiens, UniProt Q05397); test: Kinase IC50 (Eurofins KinaseProfiler); type: biochemical
T7 construct: purchased Eurofins (KinaseProfiler service)
Experimental: as §1, §2, §3

FGFR2 (h) = biological target: T8, FGFR2 (h) (Homo sapiens, UniProt P21802); test: Kinase IC50 (Eurofins KinaseProfiler); type: biochemical
T8 construct: purchased Eurofins (KinaseProfiler service)
Experimental: as §1, §2, §3

cSRC (h) = biological target: T9, cSRC (h) (Homo sapiens, UniProt P12931); test: Kinase IC50 (Eurofins KinaseProfiler); type: biochemical
T9 construct: purchased Eurofins (KinaseProfiler service)
Experimental: as §1, §2, §3

FGFR4 (h) = biological target: T10, FGFR4 (h) (Homo sapiens, UniProt P22455); test: Kinase IC50 (Eurofins KinaseProfiler); type: biochemical
T10 construct: purchased Eurofins (KinaseProfiler service)
Experimental: as §1, §2, §3

CDK2/cyclinE (h) = biological target: T11, CDK2/cyclinE (h) (Homo sapiens, UniProt P24941); test: Kinase IC50 (Eurofins KinaseProfiler); type: biochemical
T11 construct: purchased Eurofins (KinaseProfiler service)
Experimental: as §1, §2, §3

cKit (V560G) (h) = biological target: T12, cKit (V560G) (h) (Homo sapiens, UniProt P10721, V560G); test: Kinase IC50 (Eurofins KinaseProfiler); type: biochemical
T12 construct: purchased Eurofins (KinaseProfiler service)
Experimental: as §1, §2, §3

FGFR3 (h) = biological target: T13, FGFR3 (h) (Homo sapiens, UniProt P22607); test: Kinase IC50 (Eurofins KinaseProfiler); type: biochemical
T13 construct: purchased Eurofins (KinaseProfiler service)
Experimental: as §1, §2, §3

Flt1 (h) = biological target: T14, Flt1 (h) (Homo sapiens, UniProt P17948); test: Kinase IC50 (Eurofins KinaseProfiler); type: biochemical
T14 construct: purchased Eurofins (KinaseProfiler service)
Experimental: as §1, §2, §3

PTK5 (h) = biological target: T15, PTK5 (h) (Homo sapiens, UniProt P42685); test: Kinase IC50 (Eurofins KinaseProfiler); type: biochemical
T15 construct: purchased Eurofins
Experimental: as §1, §2, §3

Syk (h) = biological target: T16, Syk (h) (Homo sapiens, UniProt P43405); test: Kinase IC50 (Eurofins KinaseProfiler); type: biochemical
T16 construct: purchased Eurofins
Experimental: as §1, §2, §3

IR (h) = biological target: T17, IR (h) (Homo sapiens, UniProt P06213); test: Kinase IC50 (Eurofins KinaseProfiler); type: biochemical
T17 construct: purchased Eurofins (KinaseProfiler service)
Experimental: as §1, §2, §3

ZAK (h) = biological target: T18, ZAK (h) (Homo sapiens, UniProt Q9NYL2); test: Kinase IC50 (Eurofins KinaseProfiler); type: biochemical
T18 construct: purchased Eurofins
Experimental: as §1, §2, §3

IGF-1R (h) = biological target: T19, IGF-1R (h) (Homo sapiens, UniProt P08069); test: Kinase IC50 (Eurofins KinaseProfiler); type: biochemical
T19 construct: purchased Eurofins (KinaseProfiler service)
Experimental: as §1, §2, §3

IRAK4 (h) = biological target: T20, IRAK4 (h) (Homo sapiens, UniProt Q9NWZ3); test: Kinase IC50 (Eurofins KinaseProfiler); type: biochemical
T20 construct: purchased Eurofins (KinaseProfiler service)
Experimental: as §1, §2, §3

MuSK (h) = biological target: T21, MuSK (h) (Homo sapiens, UniProt O15146); test: Kinase IC50 (Eurofins KinaseProfiler); type: biochemical
T21 construct: purchased Eurofins (KinaseProfiler service)
Experimental: as §1, §2, §3

CSK (h) = biological target: T22, CSK (h) (Homo sapiens, UniProt P41240); test: Kinase IC50 (Eurofins KinaseProfiler); type: biochemical
T22 construct: purchased Eurofins (KinaseProfiler service)
Experimental: as §1, §2, §3

B-Raf (h) = biological target: T23, B-Raf (h) (Homo sapiens, UniProt P15056); test: Kinase IC50 (Eurofins KinaseProfiler); type: biochemical
T23 construct: purchased Eurofins
Experimental: as §1, §2, §3

FLT3 (N841I) = FLT3 (N841I) (Homo sapiens, UniProt P36888, N841I); test: Kinase profiling; type: binding; conditions: read-out: % Ctrl @ 1000 nM
SGK3 = SGK3 (Homo sapiens, UniProt Q96BR1); test: Kinase profiling; type: binding; conditions: read-out: % Ctrl @ 1000 nM
CSNK1G2 = CSNK1G2 (Homo sapiens, UniProt P78368); test: Kinase profiling; type: binding; conditions: read-out: % Ctrl @ 1000 nM
M-NFS-60 cells = test: Proliferation of M-NFS-60 cells (CTG assay); type: cell-based, mouse; conditions: M-NFS-60 (CSF-1 dependent), 3 days
Experimental: Two syngeneic cell lines M-NFS-60 and RAW264.7 and engineered BaF3 hCSFIR cell line were starved and then tested with CBT-102 and other test articles for 3 days in the temperature of 37° C., 5% CO2 and 95% humidity. The cell viability was then detected using CTG assay. The software of GraphPad Prism was used to calculate IC50.
CSF-1 dependent mouse myeloid M-NFS-60 cells were employed as target cells while a CSF-1 independent cell line Raw 264.7 was used as a negative control. In addition to CBT-102, the study also included 3 CSF-1R inhibitors: GW2580, BLZ945 and Pexidartinib.

CSNK2A2 = CSNK2A2 (Homo sapiens, UniProt P19784); test: Kinase profiling; type: binding; conditions: read-out: % Ctrl @ 1000 nM

T21 sequence (O15146 24-869): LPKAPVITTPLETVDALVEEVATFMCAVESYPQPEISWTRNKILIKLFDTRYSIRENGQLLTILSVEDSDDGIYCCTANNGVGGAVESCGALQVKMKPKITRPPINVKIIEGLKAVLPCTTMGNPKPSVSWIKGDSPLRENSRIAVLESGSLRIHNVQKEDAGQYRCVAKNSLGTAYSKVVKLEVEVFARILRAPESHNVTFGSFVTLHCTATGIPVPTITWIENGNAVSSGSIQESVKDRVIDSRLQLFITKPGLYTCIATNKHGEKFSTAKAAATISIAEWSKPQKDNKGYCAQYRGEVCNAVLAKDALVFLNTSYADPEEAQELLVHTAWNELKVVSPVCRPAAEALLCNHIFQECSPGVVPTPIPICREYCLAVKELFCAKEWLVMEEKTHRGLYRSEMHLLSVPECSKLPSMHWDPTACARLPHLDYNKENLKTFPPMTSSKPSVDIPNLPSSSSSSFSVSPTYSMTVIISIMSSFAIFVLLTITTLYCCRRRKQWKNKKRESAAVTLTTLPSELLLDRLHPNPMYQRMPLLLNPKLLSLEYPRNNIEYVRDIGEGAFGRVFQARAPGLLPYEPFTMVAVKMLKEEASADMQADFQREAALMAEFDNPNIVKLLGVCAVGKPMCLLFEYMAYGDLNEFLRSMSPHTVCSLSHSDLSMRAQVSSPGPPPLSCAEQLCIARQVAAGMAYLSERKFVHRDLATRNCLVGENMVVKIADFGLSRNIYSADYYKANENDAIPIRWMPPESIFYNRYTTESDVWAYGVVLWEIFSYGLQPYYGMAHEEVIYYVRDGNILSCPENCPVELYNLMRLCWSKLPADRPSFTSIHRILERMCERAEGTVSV
T10 sequence (P22455 22-802): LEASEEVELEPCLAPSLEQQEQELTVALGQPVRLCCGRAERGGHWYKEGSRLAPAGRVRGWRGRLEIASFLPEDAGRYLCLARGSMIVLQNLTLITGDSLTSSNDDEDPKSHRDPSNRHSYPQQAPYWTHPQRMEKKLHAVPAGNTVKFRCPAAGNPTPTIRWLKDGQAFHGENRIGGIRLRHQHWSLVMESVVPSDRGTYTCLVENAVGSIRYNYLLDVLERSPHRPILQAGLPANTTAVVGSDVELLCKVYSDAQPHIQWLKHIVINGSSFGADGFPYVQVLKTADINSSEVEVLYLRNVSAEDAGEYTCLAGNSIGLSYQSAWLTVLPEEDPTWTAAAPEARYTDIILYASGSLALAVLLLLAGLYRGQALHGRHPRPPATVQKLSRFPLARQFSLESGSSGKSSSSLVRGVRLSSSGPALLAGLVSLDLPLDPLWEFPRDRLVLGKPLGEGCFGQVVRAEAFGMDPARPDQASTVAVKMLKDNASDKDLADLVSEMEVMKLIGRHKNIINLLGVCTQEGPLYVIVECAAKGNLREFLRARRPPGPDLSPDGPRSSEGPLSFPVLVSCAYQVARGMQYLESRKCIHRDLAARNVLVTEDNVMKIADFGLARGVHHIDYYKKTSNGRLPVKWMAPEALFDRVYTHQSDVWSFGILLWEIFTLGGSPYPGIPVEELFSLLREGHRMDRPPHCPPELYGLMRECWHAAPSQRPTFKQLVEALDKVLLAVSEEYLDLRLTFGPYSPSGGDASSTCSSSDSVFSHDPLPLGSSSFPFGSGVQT
T9 sequence (P12931 whole entry): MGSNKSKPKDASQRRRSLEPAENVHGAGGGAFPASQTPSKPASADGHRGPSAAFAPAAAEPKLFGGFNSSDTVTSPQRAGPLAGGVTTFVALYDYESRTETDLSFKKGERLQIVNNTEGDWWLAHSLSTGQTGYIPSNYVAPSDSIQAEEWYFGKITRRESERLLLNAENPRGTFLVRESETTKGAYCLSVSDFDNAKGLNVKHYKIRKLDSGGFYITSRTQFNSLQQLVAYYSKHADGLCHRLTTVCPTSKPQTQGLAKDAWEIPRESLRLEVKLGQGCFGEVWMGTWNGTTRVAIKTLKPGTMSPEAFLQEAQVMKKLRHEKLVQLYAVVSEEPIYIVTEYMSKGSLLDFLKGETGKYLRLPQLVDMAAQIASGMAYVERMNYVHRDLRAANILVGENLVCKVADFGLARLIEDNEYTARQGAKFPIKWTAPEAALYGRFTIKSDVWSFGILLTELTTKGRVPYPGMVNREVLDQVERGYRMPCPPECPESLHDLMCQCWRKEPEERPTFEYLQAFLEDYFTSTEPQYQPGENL
T12 sequence (P10721 26-976 V560G): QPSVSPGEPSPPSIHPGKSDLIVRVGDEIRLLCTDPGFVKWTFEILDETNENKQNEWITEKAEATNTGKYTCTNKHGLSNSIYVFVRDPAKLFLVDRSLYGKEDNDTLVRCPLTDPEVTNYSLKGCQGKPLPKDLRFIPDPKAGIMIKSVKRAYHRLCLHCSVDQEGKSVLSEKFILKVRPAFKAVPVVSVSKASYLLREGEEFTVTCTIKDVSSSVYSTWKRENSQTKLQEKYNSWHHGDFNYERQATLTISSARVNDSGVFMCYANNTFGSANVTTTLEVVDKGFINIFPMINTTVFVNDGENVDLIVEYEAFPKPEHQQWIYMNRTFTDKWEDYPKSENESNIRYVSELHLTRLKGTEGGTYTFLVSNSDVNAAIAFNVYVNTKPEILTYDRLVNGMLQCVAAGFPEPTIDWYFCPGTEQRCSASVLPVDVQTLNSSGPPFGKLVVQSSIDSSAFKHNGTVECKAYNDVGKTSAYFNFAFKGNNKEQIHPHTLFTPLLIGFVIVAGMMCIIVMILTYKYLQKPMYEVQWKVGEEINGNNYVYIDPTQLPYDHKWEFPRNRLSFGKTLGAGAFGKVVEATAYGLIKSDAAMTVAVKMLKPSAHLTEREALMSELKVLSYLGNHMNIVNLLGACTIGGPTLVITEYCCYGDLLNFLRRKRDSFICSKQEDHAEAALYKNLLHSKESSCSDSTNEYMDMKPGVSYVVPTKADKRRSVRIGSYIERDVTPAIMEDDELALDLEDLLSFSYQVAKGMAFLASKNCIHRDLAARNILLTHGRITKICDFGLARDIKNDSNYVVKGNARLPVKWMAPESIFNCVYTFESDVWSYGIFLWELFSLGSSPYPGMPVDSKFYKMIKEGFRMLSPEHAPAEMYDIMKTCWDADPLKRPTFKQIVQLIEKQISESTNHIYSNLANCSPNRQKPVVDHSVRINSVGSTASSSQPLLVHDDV
T20 sequence (Q9NWZ3 whole entry): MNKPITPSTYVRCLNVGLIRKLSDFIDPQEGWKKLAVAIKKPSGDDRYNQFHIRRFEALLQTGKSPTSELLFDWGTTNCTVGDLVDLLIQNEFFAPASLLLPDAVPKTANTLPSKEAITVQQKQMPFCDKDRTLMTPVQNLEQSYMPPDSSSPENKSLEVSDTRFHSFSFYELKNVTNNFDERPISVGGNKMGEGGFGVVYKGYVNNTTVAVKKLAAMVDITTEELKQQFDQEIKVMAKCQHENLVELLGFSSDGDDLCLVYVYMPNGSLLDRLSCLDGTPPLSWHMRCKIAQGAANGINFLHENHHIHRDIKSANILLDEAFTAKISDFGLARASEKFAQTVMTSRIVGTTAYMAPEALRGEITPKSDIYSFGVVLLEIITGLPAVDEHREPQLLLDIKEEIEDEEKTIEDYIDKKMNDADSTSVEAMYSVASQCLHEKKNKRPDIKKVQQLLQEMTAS
T17 sequence (P06213 28-1382): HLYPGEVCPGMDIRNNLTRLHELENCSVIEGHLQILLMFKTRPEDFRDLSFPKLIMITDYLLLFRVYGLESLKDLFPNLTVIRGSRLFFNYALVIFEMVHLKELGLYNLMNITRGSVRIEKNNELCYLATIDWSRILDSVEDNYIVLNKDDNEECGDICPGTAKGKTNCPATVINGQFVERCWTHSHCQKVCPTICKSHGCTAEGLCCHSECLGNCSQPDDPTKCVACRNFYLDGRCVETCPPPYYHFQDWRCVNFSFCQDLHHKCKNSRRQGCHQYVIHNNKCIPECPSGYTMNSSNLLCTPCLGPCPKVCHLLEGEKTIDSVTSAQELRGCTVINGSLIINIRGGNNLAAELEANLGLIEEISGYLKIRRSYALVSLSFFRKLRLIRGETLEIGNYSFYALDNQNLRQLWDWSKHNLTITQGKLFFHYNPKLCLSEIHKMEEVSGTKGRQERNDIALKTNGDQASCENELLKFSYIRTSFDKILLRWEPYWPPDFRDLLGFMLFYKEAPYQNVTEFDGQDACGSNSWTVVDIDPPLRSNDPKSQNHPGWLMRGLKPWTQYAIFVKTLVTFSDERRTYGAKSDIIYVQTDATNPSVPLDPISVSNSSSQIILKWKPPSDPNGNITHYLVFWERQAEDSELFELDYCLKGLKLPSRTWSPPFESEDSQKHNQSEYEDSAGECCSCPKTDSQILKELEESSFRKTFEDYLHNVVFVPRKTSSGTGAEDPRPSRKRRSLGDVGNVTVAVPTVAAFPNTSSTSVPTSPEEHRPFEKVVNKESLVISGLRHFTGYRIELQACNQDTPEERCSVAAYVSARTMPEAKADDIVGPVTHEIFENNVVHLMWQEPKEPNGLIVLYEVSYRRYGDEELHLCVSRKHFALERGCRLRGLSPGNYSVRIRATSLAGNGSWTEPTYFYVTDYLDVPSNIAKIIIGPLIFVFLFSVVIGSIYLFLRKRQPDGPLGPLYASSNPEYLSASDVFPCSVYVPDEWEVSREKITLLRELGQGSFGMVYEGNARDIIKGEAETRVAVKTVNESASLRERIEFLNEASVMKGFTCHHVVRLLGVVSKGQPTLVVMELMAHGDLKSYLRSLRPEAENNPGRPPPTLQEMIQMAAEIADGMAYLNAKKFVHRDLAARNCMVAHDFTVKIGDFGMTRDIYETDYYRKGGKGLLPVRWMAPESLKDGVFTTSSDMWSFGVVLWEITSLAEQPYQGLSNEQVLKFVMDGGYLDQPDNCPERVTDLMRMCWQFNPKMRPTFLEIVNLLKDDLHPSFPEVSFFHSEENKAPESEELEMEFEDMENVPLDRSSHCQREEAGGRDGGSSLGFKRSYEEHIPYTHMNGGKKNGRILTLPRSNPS
T4 sequence (P10721 26-976 V654A): as the sequence (P10721 26-976 V560G) above, with G535V, V629A counted along it

Cc1cc(Oc2cc(NC(=O)C3CC3)ncn2)ccc1NC(=O)Nc1ccc(Cl)c(C(F)(F)F)c1 [CBT-102]
remaining activity at 1 µM (CSNK1A1): 99%
remaining activity at 1 µM (FLT3 (D835Y)): 61%
remaining activity at 1 µM (IKK-epsilon): 100%
pIC50 (Flt3 (h)): 5.96
pIC50 (CDK6/cyclinD3 (h)): < 5.00
pIC50 (DDR2 (h)): 6.58
pIC50 (cKit (V654A) (h)): 6.56
pIC50 (JAK2 (h)): < 5.00
pIC50 (LOK (h)): 5.96
pIC50 (FAK (h)): < 5.00
pIC50 (FGFR2 (h)): 6.22
pIC50 (cSRC (h)): 5.60
pIC50 (FGFR4 (h)): < 5.00
pIC50 (CDK2/cyclinE (h)): < 5.00
pIC50 (cKit (V560G) (h)): 7.42
pIC50 (FGFR3 (h)): < 5.00
pIC50 (Flt1 (h)): 7.68
pIC50 (PTK5 (h)): 7.28
pIC50 (Syk (h)): < 5.00
pIC50 (IR (h)): < 5.00
pIC50 (ZAK (h)): 7.59
pIC50 (IGF-1R (h)): < 5.00
pIC50 (IRAK4 (h)): < 5.00
pIC50 (MuSK (h)): 6.56
pIC50 (CSK (h)): < 5.00
pIC50 (B-Raf (h)): 6.46
remaining activity at 1 µM (FLT3 (N841I)): 0%
remaining activity at 1 µM (SGK3): 82%
remaining activity at 1 µM (CSNK1G2): 94%
pIC50 (M-NFS-60 cells): 6.46
pIC50 (M-NFS-60 cells; Mus musculus, 72 h): 6.20
remaining activity at 1 µM (CSNK2A2): 100%
